Data: patent publication US12503436B2, “Compounds and compositions for treating conditions associated with STING activity” (NOVARTIS PHARMA AG, priority 2021, dated 2025)
pEC50: −log10 of the molar value.

What follows are molecules tested against STING (Homo sapiens, UniProt Q86WV6, G230A/H232R/R293Q/R71H) (assay: STING reporter assay in THP1-Dual KO-IFNAR2 cells (2′3′cGAMP stimulation, luciferase reporter)). Settings: 15 μM 2′3′cGAMP stimulation, 24 h, read-out: Pharmaron, THP1_IFNAR2 STING 24 h Luci Normalized: GeoMean EC50.
Chain of STING (Q86WV6 whole entry R71H/G230A/H232R/R293Q): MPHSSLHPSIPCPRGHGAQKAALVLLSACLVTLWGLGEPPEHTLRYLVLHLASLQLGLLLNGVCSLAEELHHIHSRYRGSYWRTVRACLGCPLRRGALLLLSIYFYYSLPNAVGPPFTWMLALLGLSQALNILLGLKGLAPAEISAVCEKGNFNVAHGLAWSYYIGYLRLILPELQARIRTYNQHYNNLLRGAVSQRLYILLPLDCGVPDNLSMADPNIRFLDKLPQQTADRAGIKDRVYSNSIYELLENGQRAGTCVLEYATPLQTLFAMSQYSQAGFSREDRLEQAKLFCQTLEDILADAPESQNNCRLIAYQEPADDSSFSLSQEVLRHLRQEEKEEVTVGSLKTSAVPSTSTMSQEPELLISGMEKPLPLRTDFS
Format: cell-based
How it was run: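 THP1-Dual KO-IFNAR2 cells (2×10E6 cells/mL) with compounds at 0.0017-100 μM final, stimulated with 15 μM final 2′3′cGAMP delivered by Lipofectamine 2000; 24 h at 37 °C. Luciferase in supernatant read with QUANTI-Luc Plus; EC50 derived from luminescence.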
Work on CC1(C(=O)Nc2c[nH]c3ccc(O[C@H]4C[C@H](c5ccc(C(F)(F)F)cc5)C4)cc23)CCC1 [Compound 564, 1-methyl-N-(5-(trans-3-(4-(trifluoromethyl)phenyl)cyclobutoxy)-1H-indol-3-yl)cyclobutane-1-carboxamide] yielded a pEC50 of 6.70 to 7.40. N#CC1(C(=O)Nc2c[nH]c3ccc(O[C@H]4C[C@H](c5ccc(C(F)(F)F)cc5)C4)cc23)CC1 [Compound 565, 1-cyano-N-(5-(trans-3-(4-(trifluoromethyl)phenyl)cyclobutoxy)-1H-indol-3-yl)cyclopropane-1-carboxamide] showed a pEC50 of 6.00 to 6.70. Molecule CC1(C(=O)Nc2c[nH]c3ccc(O[C@H]4C[C@H](c5ccc(C(F)(F)F)cc5)C4)cc23)CNC1 [Compound 567, 3-methyl-N-(5-(trans-3-(4-(trifluoromethyl)phenyl)cyclobutoxy)-1H-indol-3-yl)azetidine-3-carboxamide] has a pEC50 of 5.30 to 6.00. With CC(C)(C)OC(=O)N1CC(C)(C(=O)Nc2c[nH]c3ccc(O[C@H]4C[C@H](c5ccc(C(F)(F)F)cc5)C4)cc23)C1 [Compound 568, tert-butyl 3-methyl-3-((5-(trans-3-(4-(trifluoromethyl)phenyl)cyclobutoxy)-1H-indol-3-yl)carbamoyl)azetidine-1-carboxylate] the pEC50 was 6.00 to 6.70. For CC1(C(=O)Nc2c[nH]c3ccc(OCCc4ccc(C(F)(F)F)cc4)cc23)CNC1 [Compound 569, 3-methyl-N-(5-(4-(trifluoromethyl)phenethoxy)-1H-indol-3-yl)azetidine-3-carboxamide], the pEC50 was 5.30 to 6.00. CC(C)(C)OC(=O)N1CC(C)(C(=O)Nc2c[nH]c3ccc(OCCc4ccc(C(F)(F)F)cc4)cc23)C1 [Compound 570, tert-butyl 3-methyl-3-((5-(4-(trifluoromethyl)phenethoxy)-1H-indol-3-yl)carbamoyl)azetidine-1-carboxylate] showed a pEC50 of 6.00 to 6.70. O=C(Nc1c[nH]c2ccc(O[C@H]3C[C@H](c4ccc(C(F)(F)F)cc4)C3)cc12)C1CC1(F)Cl (stereo partly drawn) [Compound 571, 2-chloro-2-fluoro-N-(5-(trans-3-(4-(trifluoromethyl)phenyl)cyclobutoxy)-1H-indol-3-yl)cyclopropane-1-carboxamide] showed a pEC50 of 6.00 to 6.70. COC1CC(C(=O)Nc2c[nH]c3ccc(O[C@H]4C[C@H](c5ccc(C(F)(F)F)cc5)C4)cc23)C1 (stereo partly drawn) [Compound 572, 3-methoxy-N-(5-(trans-3-(4-(trifluoromethyl)phenyl)cyclobutoxy)-1H-indol-3-yl)cyclobutane-1-carboxamide] showed a pEC50 of 6.70 to 7.40. In the case of O=C(Nc1c[nH]c2ccc(O[C@H]3C[C@H](c4ccc(C(F)(F)F)cc4)C3)cc12)C1CC(O)C1 (stereo partly drawn) [Compound 573, 3-hydroxy-N-(5-(trans-3-(4-(trifluoromethyl)phenyl)cyclobutoxy)-1H-indol-3-yl)cyclobutane-1-carboxamide], the pEC50 was 6.70 to 7.40. Molecule O=C(Nc1c[nH]c2ccc(O[C@H]3C[C@H](c4ccc(C(F)(F)F)cc4)C3)cc12)C1CC1(F)F (stereo partly drawn) [Compound 574, 2,2-difluoro-N-(5-(trans-3-(4-(trifluoromethyl)phenyl)cyclobutoxy)-1H-indol-3-yl)cyclopropane-1-carboxamide] has a pEC50 of 6.70 to 7.40. In the case of O=C(Nc1c[nH]c2ccc(O[C@H]3C[C@@H](c4ccc(C(F)(F)F)cc4)C3)cc12)C1CC1(F)Cl (stereo partly drawn) [Compound 575, 2-chloro-2-fluoro-N-(5-(cis-3-(4-(trifluoromethyl)phenyl)cyclobutoxy)-1H-indol-3-yl)cyclopropane-1-carboxamide], the pEC50 was 6.00 to 6.70. Work on O=C(Nc1c[nH]c2ccc(O[C@H]3C[C@@H](c4ccc(C(F)(F)F)cc4)C3)cc12)C1CC(F)C1 (stereo partly drawn) [Compound 576, 3-fluoro-N-(5-(cis-3-(4-(trifluoromethyl)phenyl)cyclobutoxy)-1H-indol-3-yl)cyclobutane-1-carboxamide] yielded a pEC50 of 6.70 to 7.40. Work on O=C(Nc1c[nH]c2ccc(OCC[C@@H]3C[C@@H]4CN(CC(F)(F)F)C[C@@H]4C3)cc12)C1CC1(F)Cl (stereo partly drawn) [Compound 577, 2-chloro-2-fluoro-N-(5-(2-((3aR,5r,6aS)-2-(2,2,2-trifluoroethyl)octahydrocyclopenta[c]pyrrol-5-yl)ethoxy)-1H-indol-3-yl)cyclopropane-1-carboxamide] yielded a pEC50 of 6.00 to 6.70. Work on CC(=O)Nc1c[nH]c2c(Br)cc(CCOc3ccc(C(F)(F)F)cc3)cc12 [Compound 578, N-(7-bromo-5-(2-(4-(trifluoromethyl)phenoxy)ethyl)-1H-indol-3-yl)acetamide] yielded a pEC50 of 5.30 to 6.00. Work on CC1(C(=O)Nc2c[nH]c3ccc(O[C@H]4C[C@@H](c5ccc(C(F)(F)F)nc5)C4)cc23)CC1 [Compound 579, 1-methyl-N-(5-(cis-3-(6-(trifluoromethyl)pyridin-3-yl)cyclobutoxy)-1H-indol-3-yl)cyclopropane-1-carboxamide] yielded a pEC50 of 6.00 to 6.70. Molecule CC(=O)Nc1c[nH]c2ccc(CCOc3cccnc3)cc12 [Compound 581, N-(5-(2-(pyridin-3-yloxy)ethyl)-1H-indol-3-yl)acetamide] has a pEC50 of 4.00 to 5.30. For N#C[C@@H]1C[C@@H]1C(=O)Nc1c[nH]c2ccc(CCOc3ccc(C(F)(F)F)cc3)cc12 [Compound 582, (1S,2R)-2-cyano-N-(5-(2-(4-(trifluoromethyl)phenoxy)ethyl)-1H-indol-3-yl)cyclopropane-1-carboxamide], the pEC50 was 6.70 to 7.40. Molecule O=C(Nc1c[nH]c2ccc(OCc3ccc(C(F)(F)F)cc3)cc12)C1CC(F)(F)C1 [Compound 584, 3,3-difluoro-N-(5-((4-(trifluoromethyl)benzyl)oxy)-1H-indol-3-yl)cyclobutane-1-carboxamide] has a pEC50 of 6.00 to 6.70. N#C[C@H]1C[C@@H]1C(=O)Nc1c[nH]c2ccc(OCc3ccc(C(F)(F)F)cc3)cc12 [Compound 585, (1S,2S)-2-cyano-N-(5-((4-(trifluoromethyl)benzyl)oxy)-1H-indol-3-yl)cyclopropane-1-carboxamide] was tested, and the pEC50 was 6.00 to 6.70. N#CC1(C(=O)Nc2c[nH]c3ccc(OCc4ccc(C(F)(F)F)cc4)cc23)CC1 [Compound 586, 1-cyano-N-(5-((4-(trifluoromethyl)benzyl)oxy)-1H-indol-3-yl)cyclopropane-1-carboxamide] was tested, and the pEC50 was 6.00 to 6.70. Molecule O=C(Nc1c[nH]c2ccc(O[C@H]3C[C@@H](c4ccc(C(F)(F)F)cc4)C3)cc12)C1CC(F)(F)C1 [Compound 587, 3,3-difluoro-N-(5-(cis-3-(4-(trifluoromethyl)phenyl)cyclobutoxy)-1H-indol-3-yl)cyclobutane-1-carboxamide] has a pEC50 of 6.70 to 7.40. With O=C(Nc1c[nH]c2ccc(OCC[C@@H]3C[C@@H]4CN(CC(F)(F)F)C[C@@H]4C3)cc12)C1CC(F)(F)C1 [Compound 588, 3,3-difluoro-N-(5-(2-((3aR,5r,6aS)-2-(2,2,2-trifluoroethyl)octahydrocyclopenta[c]pyrrol-5-yl)ethoxy)-1H-indol-3-yl)cyclobutane-1-carboxamide] the pEC50 was 6.70 to 7.40. With O=C(Nc1c[nH]c2ccc(OCC[C@@H]3C[C@@H]4CN(CC(F)(F)F)C[C@@H]4C3)cc12)C1CC(F)C1 (stereo partly drawn) [Compound 589, 3-fluoro-N-(5-(2-((3aR,5r,6aS)-2-(2,2,2-trifluoroethyl)octahydrocyclopenta[c]pyrrol-5-yl)ethoxy)-1H-indol-3-yl)cyclobutane-1-carboxamide] the pEC50 was 6.70 to 7.40. For CN1CC(C(=O)Nc2c[nH]c3ccc(CCOc4ccc(C(F)(F)F)cc4)cc23)C1 [Compound 590, 1-methyl-N-(5-(2-(4-(trifluoromethyl)phenoxy)ethyl)-1H-indol-3-yl)azetidine-3-carboxamide], the pEC50 was 5.30 to 6.00. In the case of CC(C)(C)CC(=O)Nc1c[nH]c2ccc(CCOc3ccc(C(F)(F)F)cc3)cc12 [Compound 591, 3,3-dimethyl-N-(5-(2-(4-(trifluoromethyl)phenoxy)ethyl)-1H-indol-3-yl)butanamide], the pEC50 was 6.00 to 6.70. O=C(Nc1c[nH]c2ccc(CCOc3ccc(C(F)(F)F)cc3)cc12)C1CC1 [Compound 592, N-(5-(2-(4-(trifluoromethyl)phenoxy)ethyl)-1H-indol-3-yl)cyclopropanecarboxamide] was tested, and the pEC50 was 6.00 to 6.70. O=C(Nc1c[nH]c2ccc(CCOc3ccc(C(F)(F)F)cc3)cc12)C1CC(F)C1 (stereo not drawn) [Compound 593, 3-fluoro-N-(5-(2-(4-(trifluoromethyl)phenoxy)ethyl)-1H-indol-3-yl)cyclobutane-1-carboxamide] was tested, and the pEC50 was 6.70 to 7.40. Molecule CC1(C(=O)Nc2c[nH]c3ccc(CCOc4ccc(C(F)(F)F)cc4)cc23)CCOCC1 [Compound 594, 4-methyl-N-(5-(2-(4-(trifluoromethyl)phenoxy)ethyl)-1H-indol-3-yl)tetrahydro-2H-pyran-4-carboxamide] has a pEC50 of 6.00 to 6.70. O=C(Nc1c[nH]c2ccc(CCOc3ccc(C(F)(F)F)cc3)cc12)C1CC1(F)F (stereo not drawn) [Compound 595, 2,2-difluoro-N-(5-(2-(4-(trifluoromethyl)phenoxy)ethyl)-1H-indol-3-yl)cyclopropane-1-carboxamide] gave a pEC50 of 6.70 to 7.40. “cis-3-hydroxy-N-(5-(2-((3aR,5r,6aS)-2-(2,2,2-trifluoroethyl)octahydrocyclopenta[c]pyrrol-5-yl)ethoxy)-1H-indol-3-yl)cyclobutane-1-carboxamide [Compound 344]” was tested, and the pEC50 was 6.00 to 6.70.
